ChEMBL document CHEMBL5257041, “An exhaustive perspective on structural insights of SGLT2 inhibitors: A novel class of antidiabetic agent” (Eur J Med Chem, 2020)

Molecular target: T1, Sodium/glucose cotransporter 2 (Homo sapiens, UniProt P31639)
T1 sequence (P31639 whole entry): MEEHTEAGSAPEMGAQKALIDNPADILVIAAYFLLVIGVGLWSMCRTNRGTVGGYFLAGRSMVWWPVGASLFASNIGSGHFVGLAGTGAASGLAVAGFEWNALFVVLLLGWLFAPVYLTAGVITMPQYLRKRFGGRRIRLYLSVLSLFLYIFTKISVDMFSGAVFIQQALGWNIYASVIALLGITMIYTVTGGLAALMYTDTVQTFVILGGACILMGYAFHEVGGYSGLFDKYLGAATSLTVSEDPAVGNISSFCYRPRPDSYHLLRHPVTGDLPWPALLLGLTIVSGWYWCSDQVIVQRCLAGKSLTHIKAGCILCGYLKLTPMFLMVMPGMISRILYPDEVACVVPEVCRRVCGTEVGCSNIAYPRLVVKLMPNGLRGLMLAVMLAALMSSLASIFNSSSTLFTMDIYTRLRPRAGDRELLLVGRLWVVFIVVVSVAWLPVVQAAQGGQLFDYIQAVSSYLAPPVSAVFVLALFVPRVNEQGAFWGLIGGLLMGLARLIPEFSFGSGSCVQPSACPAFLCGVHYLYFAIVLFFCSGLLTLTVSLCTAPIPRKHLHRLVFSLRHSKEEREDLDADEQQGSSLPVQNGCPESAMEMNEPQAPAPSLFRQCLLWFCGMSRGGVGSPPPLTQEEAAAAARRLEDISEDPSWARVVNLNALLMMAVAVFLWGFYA
Assay: Inhibition of human SGLT2

Compound: CCc1ccc(Cc2cc([C@@H]3O[C@H](CO)C(F)(F)[C@H](O)[C@H]3O)ccc2Cl)cc1
- IC50: 0.35 nM
